# Assays:
# Streptococcus pyogenes [1] = test: In vitro antimicrobial activity against Streptococcus pyogenes C203; format: functional
# [2] = test system: Bacteroides thetaiotaomicron; test: In vitro antimicrobial activity against anaerobic bacteria bacteroides thetaiotaomicron 1438; format: functional
# [3] = test system: Peptostreptococcus anaerobius; test: In vitro antimicrobial activity against anaerobic bacteria eubacterium peptostreptococcus anaerobius 1428,; format: functional
# Streptococcus pyogenes [4] = test: In vivo effective dose against Streptococcus pyogenes C203 when administered sc; format: functional
# Streptococcus pneumoniae [5] = test: In vitro antimicrobial activity against aerobic bacteria Streptococcus pneumoniae B1-438; format: functional, streptococcus pneum
# Phocaeicola vulgatus = test: In vitro antimicrobial activity against anaerobic bacteria bacteroides vulgatus 1211; format: functional
# Staphylococcus aureus [6] = test: In vitro antimicrobial activity against aerobic bacteria Staphylococcus aureus V135; format: functional
# Collinsella aerofaciens = test: In vitro antimicrobial activity against anaerobic bacteria eubacterium aerofaciens 1235; format: functional
# Streptococcus pyogenes [7] = test: Antimicrobial activity against Streptococcus pyogenes C203; format: functional
# Anaerococcus prevotii = test: In vitro antimicrobial activity against anaerobic bacteria peptococcus prevoti 1281; format: functional
# Streptococcus [8] = test: In vitro antimicrobial activity against aerobic bacteria Streptococcus B 8; format: functional
# Enterococcus faecium = test: In vitro antimicrobial activity against Streptococcus faecium X66; format: functional, streptococcus fae-cium
# Haemophilus influenzae [9] = test: In vitro antimicrobial activity against aerobic bacteria Haemophilus influenzae 465; format: functional
# Cutibacterium acnes = test: In vitro antimicrobial activity against anaerobic bacteria propionibacterium acnes 79; format: functional
# Haemophilus influenzae [10] = test: In vitro antimicrobial activity against aerobic bacteria Haemophilus influenzae 76; format: functional
# Streptococcus pyogenes [11] = test: In vivo effective dose against Streptococcus pyogenes C203 when administered orally; format: functional; conditions: po
# Clostridioides difficile = test: In vitro antimicrobial activity against anaerobic bacteria Clostridium difficile 2994; format: functional
# [12] = test system: Staphylococcus epidermidis; test: In vitro antimicrobial activity against Staphylococcus epidermidis EPI1; format: functional
# Staphylococcus aureus [13] = test: In vitro antimicrobial activity against Staphylococcus aureus X1; format: functional
# Bacteroides fragilis [14] = test: In vitro antimicrobial activity against anaerobic bacteria bacteroides fragilis 1936B,; format: functional
# Streptococcus [15] = test: In vitro antimicrobial activity against aerobic bacteria Streptococcus D 8043; format: functional
# Bacteroides fragilis [16] = test: In vitro antimicrobial activity against anaerobic bacteria bacteroides fragilis 111; format: functional
# Clostridium perfringens = test: In vitro antimicrobial activity against anaerobic bacteria clostridium perfringens 81,; format: functional
# Clostridium septicum = test: In vitro antimicrobial activity against anaerobic bacteria clostridium septicum 1128; format: functional
# [17] = test system: Peptoniphilus asaccharolyticus; test: In vitro antimicrobial activity against anaerobic bacteria peptococcus asaccharolyticus 1302; format: functional
# [18] = test system: Fusobacterium necrophorum; test: In vitro antimicrobial activity against anaerobic bacteria usobacterium necrophorum 6054A; format: functional
# Streptococcus [19] = test: In vitro antimicrobial activity against aerobic bacteria Streptococcus D 9960; format: functional
# Staphylococcus aureus [20] = test: In vitro antimicrobial activity against aerobic bacteria Staphylococcus aureus X400; format: functional
# Staphylococcus aureus [21] = test: In vitro antimicrobial activity against aerobic bacteria Staphylococcus aureus V140,; format: functional
# Streptococcus [22] = test: In vitro antimicrobial activity against aerobic bacteria Streptococcus G Kruder; format: functional; conditions: Streptococcus; read-out: MIC
# [23] = test system: Prevotella melaninogenica; test: In vitro antimicrobial activity against anaerobic bacteria bacteroides melaninogenicus 1856,; format: functional
# Streptococcus [24] = test: In vitro antimicrobial activity against aerobic bacteria Streptococcus D 2041; format: functional
# Fusobacterium = test: In vitro antimicrobial activity against anaerobic bacteria fusobacterium symbiosum 1470; format: functional
# Staphylococcus aureus [25] = test: In vitro antimicrobial activity against aerobic bacteria Staphylococcus aureus V41; format: functional
# Streptococcus [26] = test: In vitro antimicrobial activity against aerobic bacteria Streptococcus C 24; format: functional
# [27] = test system: Prevotella melaninogenica; test: In vitro antimicrobial activity against anaerobic bacteria bacteroides melaninogenicus 2736; format: functional
# Streptococcus pneumoniae [28] = test: In vitro antimicrobial activity against Streptococcus pneumoniae; format: functional
# [29] = test system: Staphylococcus epidermidis; test: In vitro antimicrobial activity against aerobic bacteria Streptococcus epi 222; format: functional
# Bacteroides fragilis [30] = test: In vitro antimicrobial activity against anaerobic bacteria bacteroides fragilis 1877; format: functional
# Streptococcus sanguinis = test: In vitro antimicrobial activity against aerobic bacteria Streptococcus sanguis MX132; format: functional
# [31] = In vitro antimicrobial activity against anaerobic bacteria peptostreptococcus intermedius 1264; format: functional
# [32] = test system: Haemophilus parainfluenzae; test: In vitro antimicrobial activity against aerobic bacteria Haemophilus parainfluenzae 9796; format: functional
# Haemophilus influenzae [33] = test: In vitro antimicrobial activity against aerobic bacteria Haemophilus influenzae MX366,; format: functional
# Staphylococcus aureus [34] = test: In vitro antimicrobial activity against aerobic bacteria Staphylococcus aureus 513E; format: functional
# Streptococcus [35] = test: In vitro antimicrobial activity against aerobic bacteria Streptococcus B 5; format: functional
# Eikenella corrodens = test: In vitro antimicrobial activity against anaerobic bacteria bacteroides corrodens 1874; format: functional
# Chlamydia trachomatis = test: In vitro antimicrobial activity against chlamydia trachomatis.; format: functional
# [36] = test system: Staphylococcus epidermidis; test: In vitro antimicrobial activity against aerobic bacteria Streptococcus epi 270; format: functional
# Streptococcus viridans = test: In vitro antimicrobial activity against aerobic bacteria Streptococcus viridans 9943; format: functional
# Haemophilus influenzae [37] = test: In vitro antimicrobial activity against Haemophilus influenzae.; format: functional
smiles,measurement,setting,value
CC[C@H]1OC(=O)C[C@@H](O)[C@H](C)[C@@H](O[C@@H]2O[C@H](C)[C@@H](O[C@H]3C[C@@](C)(O)[C@@H](O)[C@H](C)O3)[C@H](N(C)C)[C@H]2O)[C@@H](CC=O)C[C@@H](C)C(=O)/C=C/C(C)=C/[C@@H]1CO,MIC,Streptococcus pyogenes [1],0.25 µg/mL
same,MIC,[2],2 µg/mL
same,MIC,[3],4 µg/mL
same,ED50,Streptococcus pyogenes [4],1.9 mg/kg
same,MIC,Streptococcus pneumoniae [5],128 µg/mL
same,MIC,Phocaeicola vulgatus,2 µg/mL
same,MIC,Staphylococcus aureus [6],2 µg/mL
same,MIC,Collinsella aerofaciens,0.12 µg/mL
same,MIC,Streptococcus pyogenes [7],0.25 µg/mL
same,MIC,Anaerococcus prevotii,8 µg/mL
same,MIC,Streptococcus [8],0.25 µg/mL
same,MIC,Enterococcus faecium,1 µg/mL
same,MIC,Haemophilus influenzae [9],8 µg/mL
same,MIC,Cutibacterium acnes,0.25 µg/mL
same,MIC,Haemophilus influenzae [10],4 µg/mL
same,ED50,Streptococcus pyogenes [11],82 mg/kg
same,MIC,Clostridioides difficile,1 µg/mL
same,MIC,[12],1 µg/mL
same,MIC,Staphylococcus aureus [13],1 µg/mL
same,MIC,Bacteroides fragilis [14],2 µg/mL
same,MIC,Streptococcus [15],0.5 µg/mL
same,MIC,Bacteroides fragilis [16],2 µg/mL
same,MIC,Clostridium perfringens,0.5 µg/mL
same,MIC,Clostridium septicum,0.5 µg/mL
same,MIC,[17],< 0.03 µg/mL
same,MIC,[18],0.12 µg/mL
same,MIC,Streptococcus [19],1 µg/mL
same,MIC,Staphylococcus aureus [20],2 µg/mL
same,MIC,Staphylococcus aureus [21],2 µg/mL
same,MIC,Streptococcus [22],0.25 µg/mL
same,MIC,[23],0.5 µg/mL
same,MIC,Streptococcus [24],0.5 µg/mL
same,MIC,Fusobacterium,0.5 µg/mL
same,MIC,Staphylococcus aureus [25],1 µg/mL
same,MIC,Streptococcus [26],0.25 µg/mL
same,MIC,[27],2 µg/mL
same,MIC,Streptococcus pneumoniae [28],0.5 µg/mL
same,MIC,[29],0.25 µg/mL
same,MIC,Bacteroides fragilis [30],4 µg/mL
same,MIC,Streptococcus sanguinis,0.25 µg/mL
same,MIC,[31],0.25 µg/mL
same,MIC,[32],8 µg/mL
same,MIC,Haemophilus influenzae [33],2 µg/mL
same,MIC,Staphylococcus aureus [34],1 µg/mL
same,MIC,Streptococcus [35],0.5 µg/mL
same,MIC,Eikenella corrodens,2 µg/mL
same,MIC,Chlamydia trachomatis,1 µg/mL
same,MIC,[36],> 128 µg/mL
same,MIC,Streptococcus viridans,> 128 µg/mL
same,MIC,Haemophilus influenzae [37],4 µg/mL
